Experimental findings from ChEMBL document CHEMBL1131296 (J Med Chem, 1998) are described below.

The target in one experiment is D(2) dopamine receptor (Rattus norvegicus, UniProt P61169). The experiment in a line: Binding affinity at native Dopamine receptor D2 in rat striatum by [3H]spiperone displacement. It is filed as tissue-based.
The target in experiment [1] is T1, Alpha-1B adrenergic receptor (Rattus norvegicus, UniProt P15823).
T1 sequence (P15823 whole entry): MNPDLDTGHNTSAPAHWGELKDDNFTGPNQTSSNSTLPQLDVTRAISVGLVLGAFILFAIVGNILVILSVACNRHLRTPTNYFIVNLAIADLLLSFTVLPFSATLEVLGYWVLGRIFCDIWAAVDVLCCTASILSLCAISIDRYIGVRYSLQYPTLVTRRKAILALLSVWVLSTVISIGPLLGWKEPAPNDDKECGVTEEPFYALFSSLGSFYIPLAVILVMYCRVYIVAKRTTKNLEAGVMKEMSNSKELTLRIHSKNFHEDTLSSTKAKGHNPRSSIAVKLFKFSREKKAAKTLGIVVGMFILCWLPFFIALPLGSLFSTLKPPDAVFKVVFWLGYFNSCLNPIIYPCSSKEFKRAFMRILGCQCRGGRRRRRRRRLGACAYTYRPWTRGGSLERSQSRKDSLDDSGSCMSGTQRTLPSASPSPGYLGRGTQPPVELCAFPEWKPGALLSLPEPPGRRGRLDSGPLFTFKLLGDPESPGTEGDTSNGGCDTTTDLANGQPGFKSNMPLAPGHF
The experiment in a line: Antagonism of phenylephrine stimulated contraction of the rat isolated spleen. In kind it is functional, tissue-based. The conditions noted are these: read-out: pA2 (converted).

The target in experiment [2] is T2, Adrenergic receptor alpha-2 (Rattus norvegicus, UniProt P22086+P19328+P22909).
T2 sequence (P22086 whole entry): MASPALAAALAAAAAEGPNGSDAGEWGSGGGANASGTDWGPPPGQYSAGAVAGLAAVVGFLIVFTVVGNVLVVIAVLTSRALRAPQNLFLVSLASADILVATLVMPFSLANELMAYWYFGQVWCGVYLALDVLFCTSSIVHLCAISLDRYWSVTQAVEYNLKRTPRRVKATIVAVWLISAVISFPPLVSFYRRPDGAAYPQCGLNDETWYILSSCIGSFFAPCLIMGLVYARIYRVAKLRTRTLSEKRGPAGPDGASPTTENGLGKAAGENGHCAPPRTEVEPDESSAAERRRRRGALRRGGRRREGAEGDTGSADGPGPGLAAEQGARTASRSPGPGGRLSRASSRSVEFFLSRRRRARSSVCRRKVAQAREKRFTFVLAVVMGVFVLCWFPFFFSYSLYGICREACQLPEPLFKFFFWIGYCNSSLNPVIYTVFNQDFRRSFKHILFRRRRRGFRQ
T2 sequence (P19328 whole entry): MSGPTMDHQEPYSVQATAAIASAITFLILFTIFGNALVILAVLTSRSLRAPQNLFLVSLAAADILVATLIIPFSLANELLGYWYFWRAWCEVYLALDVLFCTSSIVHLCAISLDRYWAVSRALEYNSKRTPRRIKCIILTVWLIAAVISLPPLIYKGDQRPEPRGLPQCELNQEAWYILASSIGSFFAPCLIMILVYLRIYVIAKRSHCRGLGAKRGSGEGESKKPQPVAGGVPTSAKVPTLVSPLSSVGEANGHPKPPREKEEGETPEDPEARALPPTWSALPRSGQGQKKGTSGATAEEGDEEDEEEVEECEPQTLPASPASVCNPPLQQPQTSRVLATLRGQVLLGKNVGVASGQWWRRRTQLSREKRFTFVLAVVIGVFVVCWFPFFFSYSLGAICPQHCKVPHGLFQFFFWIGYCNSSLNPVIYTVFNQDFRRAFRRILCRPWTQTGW
T2 sequence (P22909 whole entry): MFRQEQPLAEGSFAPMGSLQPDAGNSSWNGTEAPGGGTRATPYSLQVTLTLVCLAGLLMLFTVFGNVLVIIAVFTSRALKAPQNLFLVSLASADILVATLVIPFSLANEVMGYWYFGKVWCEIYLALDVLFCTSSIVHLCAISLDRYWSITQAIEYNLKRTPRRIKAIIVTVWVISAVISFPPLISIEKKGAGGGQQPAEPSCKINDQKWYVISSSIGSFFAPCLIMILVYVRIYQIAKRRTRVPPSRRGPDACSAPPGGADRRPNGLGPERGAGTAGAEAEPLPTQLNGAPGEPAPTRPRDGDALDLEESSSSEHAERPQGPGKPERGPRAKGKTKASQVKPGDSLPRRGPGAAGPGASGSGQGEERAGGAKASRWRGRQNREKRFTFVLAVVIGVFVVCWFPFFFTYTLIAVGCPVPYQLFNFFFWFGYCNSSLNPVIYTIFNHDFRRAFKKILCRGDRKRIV
In words: Binding affinity at native Alpha-2 adrenergic receptor in rat cerebral cortex by [3H]rauwolscine displacement. It is filed as tissue-based.

In experiment [3] the target is T3, Alpha-1D adrenergic receptor (Homo sapiens, UniProt P25100).
T3 sequence (P25100 whole entry): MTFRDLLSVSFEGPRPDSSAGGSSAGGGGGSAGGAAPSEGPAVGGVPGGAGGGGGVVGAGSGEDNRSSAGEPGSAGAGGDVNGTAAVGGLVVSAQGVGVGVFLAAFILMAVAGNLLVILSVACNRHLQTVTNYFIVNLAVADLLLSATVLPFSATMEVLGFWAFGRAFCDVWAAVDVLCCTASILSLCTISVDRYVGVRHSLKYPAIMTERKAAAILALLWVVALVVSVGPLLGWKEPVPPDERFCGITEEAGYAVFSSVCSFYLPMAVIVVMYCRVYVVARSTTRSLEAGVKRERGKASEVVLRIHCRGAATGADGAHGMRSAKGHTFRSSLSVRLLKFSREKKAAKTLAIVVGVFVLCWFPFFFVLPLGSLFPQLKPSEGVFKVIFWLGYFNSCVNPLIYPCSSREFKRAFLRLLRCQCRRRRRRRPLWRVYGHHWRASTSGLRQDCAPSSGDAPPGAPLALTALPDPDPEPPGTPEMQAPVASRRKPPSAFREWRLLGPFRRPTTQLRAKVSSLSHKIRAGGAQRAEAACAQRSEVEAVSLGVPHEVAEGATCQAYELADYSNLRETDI
In words: Binding affinity at human cloned Alpha-1D adrenergic receptor in chinese hamster ovary cells by [3H]prazosin displacement. In kind it is cell-based, CHO.

The target of experiment [4] is T4, 5-hydroxytryptamine receptor 1A (Homo sapiens, UniProt P08908).
T4 sequence (P08908 whole entry): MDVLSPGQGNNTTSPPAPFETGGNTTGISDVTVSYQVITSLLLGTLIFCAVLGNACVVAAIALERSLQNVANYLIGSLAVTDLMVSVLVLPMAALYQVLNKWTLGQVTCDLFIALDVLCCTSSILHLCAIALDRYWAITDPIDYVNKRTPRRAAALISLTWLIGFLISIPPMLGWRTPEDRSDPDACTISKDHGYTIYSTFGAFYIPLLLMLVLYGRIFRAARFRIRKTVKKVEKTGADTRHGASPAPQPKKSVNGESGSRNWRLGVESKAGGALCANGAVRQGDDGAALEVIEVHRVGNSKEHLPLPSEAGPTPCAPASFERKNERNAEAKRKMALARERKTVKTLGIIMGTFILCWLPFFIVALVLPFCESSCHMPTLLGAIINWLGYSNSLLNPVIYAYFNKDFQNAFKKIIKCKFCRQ
In words: Binding affinity at human cloned 5-hydroxytryptamine 1A receptor expressed in HeLa cells by [3H]8-hydroxy-2-(di-n-propylamino)tetraline displacement. In kind it is cell-based.

Sequence of D(2) dopamine receptor (P61169 whole entry): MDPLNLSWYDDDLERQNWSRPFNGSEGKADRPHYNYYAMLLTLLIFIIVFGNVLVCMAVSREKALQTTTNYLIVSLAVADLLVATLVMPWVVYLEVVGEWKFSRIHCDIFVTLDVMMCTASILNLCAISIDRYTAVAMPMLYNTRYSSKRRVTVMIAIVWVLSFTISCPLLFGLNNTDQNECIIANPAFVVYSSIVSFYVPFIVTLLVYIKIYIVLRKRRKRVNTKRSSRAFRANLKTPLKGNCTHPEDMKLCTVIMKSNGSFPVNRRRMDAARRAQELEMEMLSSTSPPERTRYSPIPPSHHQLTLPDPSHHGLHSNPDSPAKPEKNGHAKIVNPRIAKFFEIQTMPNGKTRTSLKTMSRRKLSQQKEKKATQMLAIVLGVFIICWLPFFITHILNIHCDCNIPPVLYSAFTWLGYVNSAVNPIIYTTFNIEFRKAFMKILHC

With `COc1cc2nc(N(C)CCCCCCN(C)C(=O)c3cccc(CN(C)C)c3)nc(N)c2cc1OC`, the Ki (commonly the dissociation constant of the complex between target and ligand, obtained from inhibition or displacement) on D(2) dopamine receptor was 1950 nM; in experiment [3], 0.245 nM; in experiment [4] it was 741 nM. The Kb in experiment [1] is 37.2 nM. Moreover, the “Log Ki” value in experiment [2] is listed as -7.72.
